One test has as its target T1, Cdc25B (Homo sapiens, UniProt P30305).
T1 sequence (P30305 1-580): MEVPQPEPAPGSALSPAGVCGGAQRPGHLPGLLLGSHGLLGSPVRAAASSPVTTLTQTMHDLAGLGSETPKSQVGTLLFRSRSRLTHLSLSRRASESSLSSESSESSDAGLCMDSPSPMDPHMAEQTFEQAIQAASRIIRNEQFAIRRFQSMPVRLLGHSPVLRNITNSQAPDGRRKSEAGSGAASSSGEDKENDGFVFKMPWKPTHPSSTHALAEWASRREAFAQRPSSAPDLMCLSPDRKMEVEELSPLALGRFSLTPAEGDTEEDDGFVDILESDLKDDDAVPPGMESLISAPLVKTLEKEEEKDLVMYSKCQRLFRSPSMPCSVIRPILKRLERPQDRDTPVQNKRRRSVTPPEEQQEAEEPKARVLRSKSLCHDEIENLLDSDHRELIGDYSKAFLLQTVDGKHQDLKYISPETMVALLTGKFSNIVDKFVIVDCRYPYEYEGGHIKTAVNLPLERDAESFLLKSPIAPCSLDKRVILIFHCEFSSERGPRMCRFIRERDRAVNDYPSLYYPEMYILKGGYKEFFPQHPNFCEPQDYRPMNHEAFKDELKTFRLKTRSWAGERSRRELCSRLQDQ
The conditions noted are these: cited from earlier work.

Test [1] relates to C/EBPα Ser21 phosphorylation, c-myc, C/EBPε. As to the kind of experiment: Western blot of differentiation markers in MOLM-14. The conditions noted are these: MOLM-14, 100 nM. In kind it is cell-based, human. The method, then:
(a-b) MOLM-14 and MV4-11 cells were treated for different times with IRC-083864 (100 nM and 200 nM) and the expression of the cell surface markers CD11b, CD14 and CD15 were followed by flow cytometry analysis. (c) MOLM-14 and MV4-11 cells were treated for different times with IRC-083864 (100 nM) and morphological changes were estimated by microscopy after cells were cytospun and stained at days 8 and 13. Original magnification ×100. (d) MOLM-14 cells were treated for different times with IRC-083864 (100 nM) and c-myc expression as well as C/EBPα phosphorylation on serine 21 were analyzed by western blot at day 1, and C/EBPε expression after 6 days of treatment. (e) MOLM-14 cells were transfected with CDC25A shRNA The expression of the cell surface markers CD11b, CD14 and CD15 were followed by flow cytometry analysis at day 3 and 6 (upper panel), and their morphology was analyzed by microscopy after 6 days (lower panel). Original magnification ×100. (f) MOLM-14 cells were transfected with CDC25A siRNA, and their morphology was analyzed by microscopy after 3 days (upper panel). Original magnification ×100. The efficiency of CDC25A siRNA was assessed by western blot analysis (lower panel).
Western blot. 2×10^6 cells were usually lysed in 100 μL of NuPAGE® LDS Sample Buffer (Novex, Life Technologies, Carlsbad, Calif., USA), sonicated for 15 seconds, and boiled for 3 minutes. Proteins were then resolved on NuPAGE® 4-12% Bis-Tris Gels and transferred to nitrocellulose membrane. Saturation of the membrane was done for 1 hour in Tris Buffer Saline with Tween 0.1% (TBS-T) containing 5% non-fat milk or 5% bovine serum albumin. Membranes were blotted with proper antibodies overnight at 4° C., washed thrice with TBS-T, and incubated for 30 minutes with HRP-conjugated secondary antibody (Promega, Madison, Wis., USA). […]
(In western blotting, separated proteins are transferred to a membrane and probed.)

Test [2] concerns HL-60 cells (FLT3 wild type). As to the kind of experiment: Cell proliferation, trypan blue counting, HL-60. Type of test: cell-based, human. How it is done:
(a) MV4-11 and MOLM-14 FLT3-ITD positive cells, KG1, HL-60 and TF-1 FLT3 wild type cells, and K562 FLT3 negative cells were cultured in the presence of the CDC25 inhibitor IRC-083864 (200 nM). Cells were harvested each day and counted after trypan blue coloration. The graph represents three independent experiments.
Cell lines and reagents. Human acute myeloid leukemia cell lines MOLM-14 (Matsuo Y et al, Leukemia 1997) (kindly provided by Martin Carroll, University of Pennsylvania, Philadelphia, Pa., USA) MV4-11, K562 (ACC-102 and ACC-10, DSMZ, Braunschweig, Germany) and FLT3-ITD-expressing murine BaF3 cells were cultured in RPMI 1640 medium (Gibco, Life Technologies, Carlsbad, Calif., USA) supplemented with 10% fetal bovine serum (Sigma, Saint Louis, Calif., USA). TF-1 (ATCC-CRL2003) cells were cultured in RPMI 1640 medium with 10% fetal bovine serum and GM-CSF 2 ng/ml. Concerning MOLM-14 cell line, the presence of a monoallelic 21 bp FLT3-ITD mutation and of an MLL-containing ins(11; 9)(q23;p22p23) were verified (Hematology laboratory of Toulouse University Hospital, Prof E. Delabesse and Dr I. Luquet). KG1 and HL-60 (ACC-14 and ACC-3, DSMZ) cell lines were grown in Iscove's Modified Dulbecco's Medium (IMDM, Gibco) plus 20% FBS. All cells were grown in the presence of 100 units/ml of penicillin and streptomycin (Invitrogen) at 37° C. and 5% CO2.

SMILES strings stand for the structures.

For the compound `Cc1nc2c(s1)C(=O)C=C(NCCCN(C)CCCNC1=CC(=O)c3nc(-c4cc(F)ccc4F)oc3C1=O)C2=O` [IRC-083864], the “IC50 Cdc25 enzyme type B2” value at Cdc25B (B2) was “nanomolar range”. On Cdc25B (B3), the “IC50 Cdc25 enzyme type B3” value is reported as “nanomolar range”. In test [1] (day 1), the “C/EBPα phosphorylation on serine 21” value is on record as “dephosphorylation” and the c-myc expression entry is given as “down-regulation”. The C/EBPε expression result in test [1] (day 6) is on record as “up-regulation”. Besides, the “proliferation of HL-60” value in test [2] (200 nM) was “did not decrease”. Also, the “proliferation of HL60 upon stimulation by FLT3 ligand” value in test [2] (FLT3 ligand stimulation) was “had no effect”.
